Test [1] relates to Erysiphe graminis f. sp. tritici. The test can be described thus: Test A: wheat powdery mildew, preventive spray on wheat seedlings, disease rating. Type of test: in vivo, Erysiphe graminis f. sp. tritici (on wheat seedlings). The following applies: 200 ppm test suspension sprayed to run-off (equivalent to 500 g/ha) on wheat seedlings; 100 = 100% disease control, 0 = no control; # = significant activity. An excerpt: (§1) Test compounds were first dissolved in acetone in an amount equal to 3% of the final volume and then suspended at a concentration of 200 ppm in purified water containing 250 ppm of the surfactant Trem® 014 (polyhydric alcohol esters). The resulting test suspensions were then used in the following test. Spraying these 200 ppm test suspensions to the point of run-off on the test plants is the equivalent of a rate of 500 g/ha.
The test suspension was sprayed to the point of run-off on wheat seedlings. The following day the seedlings were inoculated with a spore dust of Erysiphe graminis f. sp. tritici, (the causal agent of wheat powdery mildew) and incubated in a growth chamber at 20° C. for 7 days, after which disease ratings were made.
(§2) Results for Tests A-E are given in Table A. In the table, a rating of 100 indicates 100% disease control and a rating of 0 indicates no disease control (relative to the controls). A dash (-) indicates no test results. ND indicates disease control not determined due to phytotoxicity. # indicates significant activity.

For test [2], the system named is Puccinia recondita. The test can be described thus: Test B: wheat leaf rust, preventive spray on wheat seedlings, disease rating. Type of test: in vivo, Puccinia recondita (on wheat seedlings). The following applies: 200 ppm test suspension sprayed to run-off (equivalent to 500 g/ha) on wheat seedlings; 100 = 100% disease control, 0 = no control; # = significant activity.
Description: as §1
The test suspension was sprayed to the point of run-off on wheat seedlings. The following day the seedlings were inoculated with a spore suspension of Puccinia recondita (the causal agent of wheat leaf rust) and incubated in a saturated atmosphere at 20° C. for 24 h, and then moved to a growth chamber at 20° C. for 6 days, after which disease ratings were made.
as §2

Test [3] has as its system Pyricularia oryzae. Type of test: in vivo, Pyricularia oryzae (on rice seedlings). The conditions noted are these: 200 ppm test suspension sprayed to run-off (equivalent to 500 g/ha) on rice seedlings; 100 = 100% disease control, 0 = no control; # = significant activity.
In test [4] the test system is Phytophthora infestans. Type of test: in vivo, Phytophthora infestans (on tomato seedlings). The following applies: 200 ppm test suspension sprayed to run-off (equivalent to 500 g/ha) on tomato seedlings; 100 = 100% disease control, 0 = no control; # = significant activity.
In test [5] the test system is Botrytis cinerea. The test can be described thus: Test E: gray mold, preventive spray on cucumber seedlings, disease rating. The conditions noted are these: 200 ppm test suspension sprayed to run-off (equivalent to 500 g/ha) on cucumber seedlings; 100 = 100% disease control, 0 = no control; # = significant activity. Type of test: in vivo, Botrytis cinerea (on cucumber seedlings).
Description: as §1
The test suspension was sprayed to the point of run-off on cucumber seedlings. The following day the seedlings were inoculated with a spore suspension of Botrytis cinerea (the causal agent of gray mold on many crops) and incubated in a saturated atmosphere at 20° C. for 48 h, and moved to a growth chamber at 20° C. for 5 days, after which disease ratings were made.
as §2

This note sets out measurements from patent publication US6504058B1 (priority 1997, dated 2003).

For `CC(NC(=O)C1(C)CC(C)(Cl)C1)c1ccc(Cl)cc1Cl` (centres unmarked) [compound 20], the “Test A disease control rating (wheat powdery mildew)” value (shortened to “Test A disease control rating”) in test [1] amounted to 59%. For the same molecule, the “Test B disease control rating (wheat leaf rust)” value (“Test B disease control rating” for short) in test [2] is listed as 0 (a rating of 0 indicates no disease control (relative to the controls)). Moreover, the “Test C disease control rating (rice blast)” value (“Test C disease control rating” below) in test [3] was 100# (a rating of 100 indicates 100% disease control). Further, the “Test D disease control rating (potato and tomato late blight)” value (shortened to “Test D disease control rating”) in test [4] was 0 (a rating of 0 indicates no disease control (relative to the controls)). The “Test E disease control rating (gray mold)” value in test [5] is 0 (a rating of 0 indicates no disease control (relative to the controls)).
In the case of `CC(NC(=O)C1(C)CC(C)(Cl)C1)c1cccc2ccccc12` (centres unmarked) [compound 21], the “Test A disease control rating” value in test [1] was 0 (a rating of 0 indicates no disease control (relative to the controls)). For the same molecule, the “Test B disease control rating” value in test [2] is reported as 0 (a rating of 0 indicates no disease control (relative to the controls)). The “Test C disease control rating” value in test [3] is recorded as 0 (a rating of 0 indicates no disease control (relative to the controls)). In test [4], the “Test D disease control rating” value is recorded as 0 (a rating of 0 indicates no disease control (relative to the controls)). Further, the “Test E disease control rating (gray mold)” value in test [5] is listed as 0 (a rating of 0 indicates no disease control (relative to the controls)).
Take `CC(NC(=O)C1(C)CC(C)(Cl)C1)c1cccc2ccccc12` (centres unmarked) [compound 22]: in test [1], the “Test A disease control rating” value is 0 (a rating of 0 indicates no disease control (relative to the controls)). Further, the “Test B disease control rating” value in test [2] is recorded as 0 (a rating of 0 indicates no disease control (relative to the controls)). In addition, the “Test C disease control rating” value in test [3] was 0 (a rating of 0 indicates no disease control (relative to the controls)). The “Test D disease control rating” value in test [4] was 0 (a rating of 0 indicates no disease control (relative to the controls)). The “Test E disease control rating (gray mold)” value in test [5] is 0 (a rating of 0 indicates no disease control (relative to the controls)).
For `CC(NC(=O)C1(C)CC(C)(Cl)C1)c1ccc2ccccc2c1` (centres unmarked) [compound 23], the “Test A disease control rating” value in test [1] is recorded as 0 (a rating of 0 indicates no disease control (relative to the controls)). Also, the “Test B disease control rating” value in test [2] was 0 (a rating of 0 indicates no disease control (relative to the controls)). Also, in test [3], the “Test C disease control rating” value was 97# %. The “Test D disease control rating” value in test [4] is listed as 0 (a rating of 0 indicates no disease control (relative to the controls)). Moreover, in test [5], the “Test E disease control rating (gray mold)” value is 0 (a rating of 0 indicates no disease control (relative to the controls)).
`CC(NC(=O)C1(C)CC(C)(Cl)C1)c1ccc2ccccc2c1` (centres unmarked) [compound 24]: the “Test A disease control rating” value in test [1] is 0 (a rating of 0 indicates no disease control (relative to the controls)). Further, in test [2], the “Test B disease control rating” value is 0 (a rating of 0 indicates no disease control (relative to the controls)). Also, the “Test C disease control rating” value in test [3] was 100# (a rating of 100 indicates 100% disease control). The “Test D disease control rating” value in test [4] is 0 (a rating of 0 indicates no disease control (relative to the controls)). In addition, the “Test E disease control rating (gray mold)” value in test [5] was 0 (a rating of 0 indicates no disease control (relative to the controls)).
`CC(COc1cc(F)ccc1F)NC(=O)C1(C(F)(F)F)CC(C)(Cl)C1` (centres unmarked) [compound 27]: the “Test A disease control rating” value in test [1] was determined as 72%. Also, the “Test B disease control rating” value in test [2] is 0 (a rating of 0 indicates no disease control (relative to the controls)). Further, in test [3], the “Test C disease control rating” value is 99# %. For the same molecule, the “Test D disease control rating” value in test [4] is listed as 14%. For the same molecule, in test [5], the “Test E disease control rating (gray mold)” value is on record as 0 (a rating of 0 indicates no disease control (relative to the controls)).
`CC(COc1cc(F)ccc1F)NC(=O)C1(C(F)(F)F)CC(C)(Cl)C1` (centres unmarked) [compound 28]: the “Test A disease control rating” value in test [1] was found to be 53%. In addition, in test [2], the “Test B disease control rating” value was 0 (a rating of 0 indicates no disease control (relative to the controls)). Also, the “Test C disease control rating” value in test [3] is given as 100# (a rating of 100 indicates 100% disease control). Further, in test [4], the “Test D disease control rating” value is recorded as 0 (a rating of 0 indicates no disease control (relative to the controls)). Also, the “Test E disease control rating (gray mold)” value in test [5] was 0 (a rating of 0 indicates no disease control (relative to the controls)).
On to `CC(COc1cc(F)ccc1F)NC(=O)C1(C)CC(C)(Cl)C1` (centres unmarked) [compound 29], for which, in test [1], the “Test A disease control rating” value was 0 (a rating of 0 indicates no disease control (relative to the controls)). For the same molecule, the “Test B disease control rating” value in test [2] was 86# %. For the same molecule, in test [3], the “Test C disease control rating” value is given as 100# (a rating of 100 indicates 100% disease control). Besides, in test [4], the “Test D disease control rating” value is 0 (a rating of 0 indicates no disease control (relative to the controls)). In test [5], the “Test E disease control rating (gray mold)” value is 0 (a rating of 0 indicates no disease control (relative to the controls)).
In the case of `CC(NC(=O)C1CC(C)(Cl)C1)C(Oc1cc(F)ccc1F)c1ccccc1` (centres unmarked) [compound 31], in test [1], the “Test A disease control rating” value is reported as 0 (a rating of 0 indicates no disease control (relative to the controls)). Moreover, the “Test B disease control rating” value in test [2] is on record as 0 (a rating of 0 indicates no disease control (relative to the controls)). Moreover, the “Test C disease control rating” value in test [3] was 90# %. In test [4], the “Test D disease control rating” value is 0 (a rating of 0 indicates no disease control (relative to the controls)). Also, the “Test E disease control rating (gray mold)” value in test [5] is reported as 0 (a rating of 0 indicates no disease control (relative to the controls)).
Regarding `CC(NC(=O)C1CC(C)(Cl)C1)C(Oc1cc(F)ccc1F)c1ccccc1` (centres unmarked) [compound 32], the “Test A disease control rating” value in test [1] was 59%. Moreover, the “Test B disease control rating” value in test [2] was 0 (a rating of 0 indicates no disease control (relative to the controls)). In addition, the “Test C disease control rating” value in test [3] is 52%. Moreover, the “Test D disease control rating” value in test [4] is reported as 0 (a rating of 0 indicates no disease control (relative to the controls)). Further, the “Test E disease control rating (gray mold)” value in test [5] is given as 0 (a rating of 0 indicates no disease control (relative to the controls)).
With `CC(NC(=O)C1CC(C)(Cl)C1)C(Oc1cc(F)ccc1C#N)c1ccccc1` (centres unmarked) [compound 33], the “Test A disease control rating” value in test [1] was 0 (a rating of 0 indicates no disease control (relative to the controls)). Further, in test [2], the “Test B disease control rating” value is given as 0 (a rating of 0 indicates no disease control (relative to the controls)). Besides, the “Test C disease control rating” value in test [3] stood at 52%. Moreover, the “Test D disease control rating” value in test [4] was 0 (a rating of 0 indicates no disease control (relative to the controls)). For the same molecule, in test [5], the “Test E disease control rating (gray mold)” value is 0 (a rating of 0 indicates no disease control (relative to the controls)).
Take `CC(NC(=O)C1CC(C)(Cl)C1)C(Oc1cc(F)ccc1C#N)c1ccccc1` (centres unmarked) [compound 34]: the “Test A disease control rating” value in test [1] turned out to be 59%. In test [2], the “Test B disease control rating” value is given as 0 (a rating of 0 indicates no disease control (relative to the controls)). Moreover, the “Test C disease control rating” value in test [3] was 52%. Besides, in test [4], the “Test D disease control rating” value was 45%. Moreover, the “Test E disease control rating (gray mold)” value in test [5] was 0 (a rating of 0 indicates no disease control (relative to the controls)).
With `CC(NC(=O)C1CC(C)(Cl)C1)C(Oc1ccccc1C#N)c1ccccc1` (centres unmarked) [compound 35], in test [1], the “Test A disease control rating” value was 0 (a rating of 0 indicates no disease control (relative to the controls)). The “Test B disease control rating” value in test [2] is 0 (a rating of 0 indicates no disease control (relative to the controls)). Moreover, the “Test C disease control rating” value in test [3] is given as 86# %. The “Test D disease control rating” value in test [4] is 0 (a rating of 0 indicates no disease control (relative to the controls)). The “Test E disease control rating (gray mold)” value in test [5] is reported as 0 (a rating of 0 indicates no disease control (relative to the controls)).
